Assay results from ChEMBL document CHEMBL1125278, “Novel cerebroprotective agents with central nervous system stimulating activity. 2. Synthesis and pharmacology of the 1-(acylamino)-7-hydroxyindan derivatives” (1991).
Values joined by “and” are separate entries in the source; they are usually repeats but may differ in a detail not shown here. Equal entries are not always repeated.

What was measured:
Format in all cases: functional
Mus musculus [1] = test: Time of recovery of spontaneous movement (SMT) in seconds was measured after administration of 10 mg/kg intraperitoneally in mice for the promotional effect on recovery from coma.; details: route intraperitoneal
Mus musculus [2] = test: Time of recovery of righting reflux (RRT) in seconds was measured after administration of 100 mg/kg intraperitoneally in mice for the promotional effect on recovery from coma.; details: route intraperitoneal
Mus musculus [3] = test: Time of recovery of spontaneous movement (SMT) in seconds was measured after administration of 100 mg/kg intraperitoneally in mice for the promotional effect on recovery from coma.; details: route intraperitoneal
Mus musculus [4] = test: Time of recovery of spontaneous movement (SMT) in seconds was measured after administration of 30 mg/kg intraperitoneally in mice for the promotional effect on recovery from coma.; details: route intraperitoneal
Mus musculus [5] = test: Time of recovery of righting reflux (RRT) in seconds was measured after administration of 30 mg/kg intraperitoneally in mice for the promotional effect on recovery from coma.; details: route intraperitoneal
Mus musculus [6] = test: Time of recovery of righting reflux (RRT) in seconds was measured after administration of 40 mg/kg orally in mice for the promotional effect on recovery from coma.; details: route oral
Mus musculus [7] = test: Antihypoxic effect by the ratio of survival time (SVT) of test mice to that of control group at a dose of 40 mg/kg administered intraperitoneally.; details: route intraperitoneal
Mus musculus [8] = test: Time of recovery of spontaneous movement (SMT) in seconds was measured after administration of 40 mg/kg orally in mice for the promotional effect on recovery from coma.; details: route oral
Mus musculus [9] = test: Antihypoxic effect by the ratio of survival time (SVT) of test mice to that of control group at a dose of 10 mg/kg administered intraperitoneally.; details: route intraperitoneal
Mus musculus [10] = test: Time of recovery of righting reflux (RRT) in seconds was measured after administration of 10 mg/kg intraperitoneally in mice for the promotional effect on recovery from coma.; details: route intraperitoneal
Mus musculus [11] = test: Antihypoxic effect by the ratio of survival time (SVT) of test mice to that of control group at a dose of 20 mg/kg administered intraperitoneally.; details: route intraperitoneal
Mus musculus [12] = test: Compound was tested for the anesthetic effect and the sleeping time (ST) was recorded at a dose of 10 mg/kg administered intraperitoneally.; details: route intraperitoneal
Mus musculus [13] = test: Spontaneous movement (SMT) in seconds, was measured after oral administration of 30 mg/kg in mice to test for promoting effects on recovery from coma.
Mus musculus [14] = test: Time of recovery of righting reflux (RRT) in seconds was measured after oral administration of 30 mg/kg in mice for the promotional effect on recovery from coma.
Mus musculus [15] = test: Antihypoxic effect by the survival time (SVT) in mice at a dose of 30 mg/kg administered orally.
Mus musculus [16] = test: Antihypoxic effect by the ratio of survival time (SVT) of test mice to that of control group at a dose of 100 mg/kg administered intraperitoneally.; details: route intraperitoneal
Mus musculus [17] = test: Time of recovery of righting reflux (RRT) in seconds was measured after intraperitoneal administration of 100 mg/kg in mice for the promotional effect on recovery from coma.
Mus musculus [18] = test: Time of recovery of righting reflux (RRT) in seconds was measured after intraperitoneal administration of 10 mg/kg in mice for the promotional effect on recovery from coma.
Mus musculus [19] = test: Time of recovery of righting reflux (RRT) in seconds was measured after intraperitoneal administration of 30 mg/kg in mice for the promotional effect on recovery from coma.
Mus musculus [20] = test: Antihypoxic effect by the survival time (SVT) in mice at a dose of 100 mg/kg administered intraperitoneally.; details: route intraperitoneal
Mus musculus [21] = test: Antihypoxic effect by the survival time (SVT) in mice at a dose of 100 mg/kg administered orally.
Mus musculus [22] = test: Antihypoxic effect by the survival time (SVT) in mice at a dose of 10 mg/kg administered intraperitoneally.; details: route intraperitoneal
Mus musculus [23] = test: Antihypoxic effect by the survival time (SVT) in mice at a dose of 30 mg/kg administered intraperitoneally.; details: route intraperitoneal
Mus musculus [24] = test: Time of recovery of spontaneous movement (SMT) in seconds was measured after administration of 100 mg/kg orally in mice for the promotional effect on recovery from coma.; details: route oral
Mus musculus [25] = test: Time of recovery of spontaneous movement (SMT) in seconds was measured after intraperitoneal administration of 30 mg/kg in mice for the promotional effect on recovery from coma.
Mus musculus [26] = test: Time of recovery of righting reflux (RRT) in seconds was measured after administration of 100 mg/kg orally in mice for the promotional effect on recovery from coma.; details: route oral
Mus musculus [27] = test: Time of recovery of spontaneous movement (SMT) in seconds was measured after administration of 1 mg/kg orally in mice for the promotional effect on recovery from coma.; details: route oral
Mus musculus [28] = test: Time of recovery of righting reflux (RRT) in seconds was measured after administration of 0.3 mg/kg orally in mice for the promotional effect on recovery from coma.; details: route oral
Mus musculus [29] = test: Time of recovery of spontaneous movement (SMT) in seconds was measured after administration of 0.3 mg/kg orally in mice for the promotional effect on recovery from coma.; details: route oral
Mus musculus [30] = test: Time of recovery of righting reflux (RRT) in seconds was measured after administration of 3 mg/kg orally in mice for the promotional effect on recovery from coma.; details: route oral
Mus musculus [31] = test: Time of recovery of spontaneous movement (SMT) in seconds was measured after administration of 3 mg/kg orally in mice for the promotional effect on recovery from coma.; details: route oral
Mus musculus [32] = test: Antihypoxic effect by the survival time (SVT) in mice at a dose of 3 mg/kg administered intraperitoneally.; details: route intraperitoneal
Mus musculus [33] = test: Compound was tested for the anesthetic effect and the sleeping time (ST) was recorded at a dose of 3 mg/kg administered orally.
Mus musculus [34] = test: Time of recovery of righting reflux (RRT) in seconds was measured after administration of 1 mg/kg orally in mice for the promotional effect on recovery from coma.; details: route oral
Mus musculus [35] = test: Antihypoxic effect tested by the ratio of survival time (SVT) of test mice to that of control group, dosed intraperitoneally at 30 mg/kg; details: route intraperitoneal, 30 mg/kg
Mus musculus [36] = test: Antihypoxic effect tested by the ratio of survival time (SVT) of test mice to that of control group, dosed orally 30 mg/kg; details: route oral
Mus musculus [37] = test: Compound was tested for the anesthetic effect and the sleeping time (ST) was recorded at a dose of 10 mg/kg administered orally.
Mus musculus [38] = test: Compound was tested for the anesthetic effect and the sleeping time (ST) was recorded at a dose of 1 mg/kg administered orally.

Structure (SMILES): CCCC(C)C1(CC)C(=O)N=C([O-])NC1=O.[Na+] (stereo unspecified) [PENTOBARBITAL SODIUM]
- SMT (Mus musculus [1]): 176.3 s
- RRT (Mus musculus [2]): 494 s
- SMT (Mus musculus [3]): 283 s
- SMT (Mus musculus [4]): 283 s
- RRT (Mus musculus [5]): 494 s
- RRT (Mus musculus [6]): 494 s
- SVT (Mus musculus [7]): 306.7% and 443.6%
- SMT (Mus musculus [8]): 283 s
- SVT (Mus musculus [9]): 134.9%
- RRT (Mus musculus [10]): 175.5 s
- SVT (Mus musculus [11]): 218.5%
- ST (Mus musculus [12]): 133 s

Structure (SMILES): Cc1cc(C)c2c(c1O)C(NC(=O)CN1CCN(c3cccc(Cl)c3)CC1)CC2 (stereo unspecified)
- SMT (Mus musculus [13]): 77.4 s
- RRT (Mus musculus [14]): 72.1 s
- SVT (Mus musculus [15]): 99.2%
- SVT (Mus musculus [16]): 168.9%

Structure (SMILES): Cc1cc(C(C)(C)C)c(O)c(C(C)(C)C)c1 [BUTYLATED HYDROXYTOLUENE]
- RRT (Mus musculus [17]): 98.7 s
- RRT (Mus musculus [18]): 96.4 s
- RRT (Mus musculus [19]): 74.5 s
- SVT (Mus musculus [20]): 358.8% and 583.9%
- SVT (Mus musculus [21]): 87.6%
- SVT (Mus musculus [22]): 140.3%
- SVT (Mus musculus [23]): 109.4%
- SMT (Mus musculus [24]): 80.9 s
- SMT (Mus musculus [25]): 110.4 s and 114.7 s and 115.7 s
- RRT (Mus musculus [26]): 69.6 s

Structure (SMILES): COc1cccc(N2CCN(CC(=O)NC3c4c(O)c(C)cc(C)c4CC3(C)C)CC2)c1 (stereo unspecified)
- SMT (Mus musculus [27]): 56.2 s
- RRT (Mus musculus [28]): 72.7 s
- SMT (Mus musculus [29]): 66.5 s
- SMT (Mus musculus [13]): 46 s
- RRT (Mus musculus [14]): 48.3 s
- RRT (Mus musculus [30]): 43.6 s
- SMT (Mus musculus [31]): 45.3 s
- SVT (Mus musculus [32]): 153.5%
- ST (Mus musculus [33]): 84.8 s
- SVT (Mus musculus [9]): 176.4%
- RRT (Mus musculus [34]): 58 s
- SVT (Mus musculus [35]): 169.1% and 206.7%
- SVT (Mus musculus [36]): 135.4%
- ST (Mus musculus [37]): 71.4 s
- ST (Mus musculus [38]): 92.7 s
